The values that follow are results of earlier work, collected in patent publication US8673356B2, “Stable fixed dose topical formulation” (Glenmark Pharmaceuticals Limited, priority 2008, dated 2014).

Structures are written as SMILES.

The conditions of series [1]: converted in vivo by hydrolysis to active clindamycin.

In the case of `COc1ccc(-c2ccc3cc(C(=O)O)ccc3c2)cc1C12CC3CC(CC(C3)C1)C2` [Adapalene, 6-[3-(1-adamantyl)-4-methoxyphenyl]-2-naphthoic acid], the Solubility in water entry is “practically insoluble”. Further, the Solubility in ethanol entry (ethanol) was “very slightly soluble”. For the same molecule, the Solubility in tetrahydrofuran entry (tetrahydrofuran) is “soluble”.

Take `CCC[C@@H]1C[C@@H](C(=O)NC(C2O[C@H](SC)[C@H](OP(=O)(O)O)[C@@H](O)[C@H]2O)[C@H](C)Cl)N(C)C1` (stereo partly drawn) [Clindamycin phosphate, methyl 7-chloro-6,7,8-trideoxy-6-(1-methyl-trans-4-propyl-L-2-pyrrolidinecarboxamido)-1-thio-L-threo-D-galactooctopyranoside 2-(dihydrogen phosphate)]: the Solubility in water entry was “water soluble”. The Activity in vitro result in series [1] is “inactive”.
